Values quoted from earlier work as cited in US5505931A, “Acid cleavable compounds, their preparation and use as bifunctional acid-labile crosslinking agents” (The Dow Chemical Company, priority 1993, dated 1996).

System: tumor
Conditions: unconjugated controls

## COc1cccc2c1C(=O)c1c(O)c3c(c(O)c1C2=O)C[C@@](O)(C(C)=O)C[C@@H]3O[C@H]1C[C@H](N)[C@H](O)[C@H](C)O1 [daunomycin]
  response in control experiments: inferior response
